Key:
[1] = system: human umbilical arterial endothelial cells (HUAEC); experiment: cGMP expression by colorimetric ELISA in HUAEC; assay type: cell-based; details: 24 hours; for cGMP expression, change vs control: agent alone, IBMX 0.4 mM; for cGMP expression, change vs control / reduction of cGMP expression compared to COMP-4 incubation alone: L-NIL 2 μM; for reduction of cGMP expression compared to COMP-4 incubation alone: inhibitor co-incubated with COMP-4 0.69 mg/ml
Method: Cells were then scraped, homogenized by pipetting, and centrifuged at 1,000 g for 10 minutes. […] The enzymatic reaction product was determined by spectrophotometry at 405 nm absorbance and expressed as pmol/mg protein.

[2] = system: human umbilical arterial endothelial cells (HUAEC); experiment: Intracellular NO by Muse Nitric Oxide Kit (DAX-J2 Orange); assay type: cell-based; details: L-NAME added to COMP-4, 24 hours
Method: To corroborate the results obtained by flow cytometry, another system for detecting intracellular NO was used, the Muse® Nitric Oxide Kit (cat #MCH100112, Luminex, Austin, TX). HUAEC were seeded at 1.0×10^6 cells/ml in T25 flasks, treated with vehicle, COMP-4 with or without L-NAME, or LPS (positive control), and incubated for 24 hours. Cells were then suspended in assay buffer at 10^6 cells/ml. 100 μL of working solution consisting of the Muse Nitric Oxide Reagent (DAX-J2 Orange) was added to 10 μL of cells in suspension. Samples were incubated for 30 minutes in a 37° C. incubator with 5% CO2. After the incubation, 90 μL of the Muse 7-AAD working solution (dead cell marker) was added to each tube and incubated at room temperature for 5 min, protected from light. Intracellular NO was measured using the Guava® Muse Cell Analyzer, calibrated with negative and positive controls. Generated plots were divided into quadrants of nitric oxide positivity (+or −) and dead cells (+or −). From each plot, the lower-right quadrant of nitric oxide (+) and dead cell marker (−) was used to express intracellular NO results as the percent positive NO in live cells, which was compared between different treatments.

SMILES	cGMP expression, change vs control [1]	reduction of DAX-J2 Orange live cells compared to COMP-4 alone [2] [%]	reduction of cGMP expression ([1]; inhibitor alone, L-NAME 3 μM, vs control) [%]	reduction of cGMP expression compared to COMP-4 incubation alone ([1]; L-NAME 3 μM) [%]
CC(C)Cn1c(=O)n(C)c(=O)c2[nH]cnc21 [IBMX, 3-isobutyl-1-methylxanthine]	increase in cGMP expression	–	–	–
COC(=O)[C@@H](N)CCCNC(=N)N[N+](=O)[O-] [L-NAME, L-N^G-Nitro arginine methyl ester]	–	46	40	57
CC(=N)NCCCC[C@H](N)C(=O)O.Cl [L-NIL, N^6-(1-Iminoethyl)-lysine, hydrochloride]	no inhibition of cGMP expression	–	–	44
